Measurements: the supplement of paper PMC8372320

Test: photocatalytic hydrogen evolution rate (per 5 mg catalyst); higher = more photocatalytic H2 evolution; extreme values may be limits of the assay
Conditions: catalyst mass (mg): 5; Pt cocatalyst (wt%): 3; sacrificial medium: triethylamine/methanol/water 1:1:1
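Note: aromatic molecules in triethylamine/methanol/water with Pt photoreduced in situ, irradiated 3 h under a 1 sun AM 1.5G solar simulator (350–1000 nm), H2 quantified by headspace gas chromatography; listed molecule itself used as the photocatalyst at 5 mg per vial.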

photocatalytic hydrogen evolution rate [µmol/h] | SMILES
0.298 | O=Cc1ccc(-c2nc(-c3ccc(C=O)cc3)nc(-c3ccc(C=O)cc3)n2)cc1
0 | Brc1cc(Br)cc(-c2ccccc2)c1
0.168 | c1cncc(-c2nc(-c3cccnc3)nc(-c3cccnc3)n2)c1
0 | Nc1nc2ccccc2[nH]1
1.32 | C1=Cc2nc1c(-c1ccccc1)c1ccc([nH]1)c(-c1ccccc1)c1nc(c(-c3ccccc3)c3ccc([nH]3)c2-c2ccccc2)C=C1
0.074 | Cc1ccc(Nc2ccc(C)cc2)cc1
0.00977 | OCc1ccc(-c2ccc(CO)cc2)cc1
0.0301 | N#Cc1cccc(-c2cccc(C#N)n2)n1
0.135 | CC1(C)OB(c2ccc(-n3c4ccccc4c4ccccc43)cc2)OC1(C)C
0 | c1cc(-c2ccncc2)ccn1
1.49 | COC(=O)c1ccc2cc(B3OC(C)(C)C(C)(C)O3)ccc2c1
0.927 | O=Cc1ccc(-c2ccc(C=O)cn2)nc1
0 | O=Cc1sc(Br)nc1Br
0.0572 | Brc1ccc2c3ccc(Br)cc3n(-c3ccccc3)c2c1
0 | Brc1ccnc(-c2cc(Br)ccn2)c1
0 | c1ccc(-c2ccc(-c3ccc(-c4ccc(-c5ccccc5)cc4)cc3)cc2)cc1
0 | N#Cc1ccc(-c2ccc(C#N)cn2)nc1
0.655 | Brc1cnc2c(ccc3cc(Br)cnc32)c1
0 | O=C(O)C(c1ccccc1)(c1ccccc1)c1ccccc1
0.0996 | O=C1C(c2ccccc2)=C(c2ccccc2)C(c2ccccc2)=C1c1ccccc1

photocatalytic hydrogen evolution rate [µmol/h] | SMILES
4.66 | N#Cc1ccc(C(=O)c2ccc(C#N)cc2)cc1
0 | CC1(C)OB(c2c3ccccc3c(B3OC(C)(C)C(C)(C)O3)c3ccccc23)OC1(C)C
0 | c1ccc2c(c1)[nH]c1ccccc12
1.84 | O=C(O)c1ccc(-c2ccc(-c3ccc(C(=O)O)cc3)cc2)cc1
1.25 | CCn1c2ccc(Br)cc2c2cc(Br)ccc21
0 | O=C1N=C(c2cccs2)c2c(O)[nH]c(-c3cccs3)c21
0.055 | Cc1cc(N)ccc1-c1ccc(N)cc1C
2.63 | Fc1c(F)c(Br)c2nsnc2c1Br
20.5 | N#Cc1c(-n2c3ccccc3c3ccccc32)c(C#N)c(-n2c3ccccc3c3ccccc32)c(-n2c3ccccc3c3ccccc32)c1-n1c2ccccc2c2ccccc21
0 | c1ccc2c(c1)CCc1ccccc1N2
0.0122 | O=Cc1cccc(-c2c(O)ccc3ccccc23)c1
0.00242 | OCc1cccc2cc3cccc(CO)c3cc12
1.65 | N#Cc1c(-n2c3ccccc3c3ccccc32)c(-n2c3ccccc3c3ccccc32)cc(-n2c3ccccc3c3ccccc32)c1-n1c2ccccc2c2ccccc21
0 | CCN(CCO)c1ccc(N=Nc2ccc([N+](=O)[O-])cc2)cc1
0.317 | O=Cc1ccc(N(c2ccccc2)c2ccccc2)cc1
3.93 | O=Cc1ccc(-n2c3ccccc3c3ccccc32)cc1
0.0489 | N#Cc1ccc2ccc(C#N)cc2c1
0 | Cc1ccc(C)c(N=Nc2cc(C)c(N=Nc3c(O)ccc4ccccc34)cc2C)c1
0 | C#Cc1ccc(Br)cc1
0 | NC(c1ccccc1)(c1ccccc1)c1ccccc1

photocatalytic hydrogen evolution rate [µmol/h] | SMILES
2.06 | O=Cc1c2ccccc2cc2ccccc12
0 | O=C1C(Br)=C(Br)C(=O)C(Br)=C1Br
1.5 | O=Cc1ccc(-n2ccnc2)cc1
0 | Ic1ccc(I)cc1
0.478 | c1cnc2c(c1)ccc1cccnc12
0 | Brc1ccc2ccccc2c1-c1c(Br)ccc2ccccc12
0.00675 | Brc1ncc(Br)n2ccnc12
0 | O=C(O)c1cc(C(=O)O)cc(-c2cc(C(=O)O)cc(C(=O)O)c2)c1
0.0661 | CCc1ccc(C(=O)CC#N)cc1
0 | COc1ccc(I)cc1
0.0311 | Brc1ccc(-c2nc(-c3ccc(Br)cc3)nc(-c3ccc(Br)cc3)n2)cc1
2.56 | O=C(O)c1ccc(-c2c3nc(c(-c4ccc(C(=O)O)cc4)c4ccc([nH]4)c(-c4ccc(C(=O)O)cc4)c4nc(c(-c5ccc(C(=O)O)cc5)c5ccc2[nH]5)C=C4)C=C3)cc1
25.2 | O=C1OC2(c3cc(Cl)c(O)cc3Oc3cc(O)c(Cl)cc32)c2ccccc21
0.369 | Brc1ccc2ccc3cccc4ccc1c2c34
3.33 | O=c1c2ccccc2n(-c2ccccc2)c2ccccc12
0 | c1ccc(Nc2ccccc2)cc1
0.0394 | COC(=O)c1ccc(B(O)O)cc1
8.34 | N#Cc1ccc(-c2ccc(C#N)c(O)c2)cc1
0 | Brc1ccc(Br)c2ccccc12
0.0242 | Brc1ccc(-c2ccc(Br)cn2)nc1

Second part, the compound before the results:

SMILES | photocatalytic hydrogen evolution rate [µmol/h]
O=Cc1ccc(F)c(O)c1 | 0.000356
O=Cc1ccc2c(c1)c1ccccc1n2Cc1ccccc1 | 2.52
Nc1ccc(Br)cc1 | 0
O=Cc1ccc(O)cc1 | 0.00783
N#Cc1ccc(C=O)cc1F | 0.104
O=C1C=CC(=O)c2ccccc21 | 0
CCOC(=O)c1nc(C(=O)OCC)nc(C(=O)OCC)n1 | 0.00108
N#Cc1nccnc1C#N | 0
Nc1cccc2ccccc12 | 0
N#Cc1c(O)ccc(O)c1C#N | 0
O=Cc1c(O)c(C=O)c(O)c(C=O)c1O | 1.03
COc1cc(Br)c(OC)cc1Br | 0
N#Cc1ccc(F)c(N)c1 | 0
CC1(C)OB(c2ccc(B3OC(C)(C)C(C)(C)O3)c3nsnc23)OC1(C)C | 0
Nc1ccc(N)cc1 | 0
COC(=O)c1cccc(C(=O)OC)n1 | 0.0266
O=C(O)c1c(F)c(F)c(C(=O)O)c(F)c1F | 0
CCOC(=O)c1cncc(C(=O)OCC)c1 | 0.00607
N#Cc1cc(F)cc(F)c1 | 0
N#CCc1ccc(CC#N)cc1 | 0
Fc1c(I)ccc(I)c1F | 0
O=Cc1ccc(N2CCCC2)cc1 | 0.173

SMILES | photocatalytic hydrogen evolution rate [µmol/h]
Brc1c2ccccc2c(Br)c2ccccc12 | 0.0125
Cc1cc(C=O)ccc1O | 0.0172
O=C(O)C1CCN(C(=O)c2ccccc2)CC1 | 0
Cc1cc(Br)cc(Br)c1 | 0
N#Cc1cccc(C#N)c1 | 0
C1=CSC(=C2SC=CS2)S1 | 0
BrCc1ccc(CBr)cc1 | 0
CN(C)c1ccc(C=O)cc1 | 0.34
Brc1nnc(Br)s1 | 0
N#Cc1cc(C#N)c(C#N)cc1C#N | 0
N#Cc1cc(N)cc(Cl)c1 | 0.000715
O=Cc1ccc2ccc3cccc4ccc1c2c34 | 10.3
N#Cc1cc(Br)c(N)c(Br)c1 | 0
Cc1cnc(C#N)c(C#N)n1 | 0
O=[N+]([O-])c1cc([N+](=O)[O-])c(F)cc1F | 0
O=C(n1ccnc1)n1ccnc1 | 0
N#Cc1ccc(C=O)cn1 | 0
O=Cc1ccc(O)c(O)c1O | 0
N#Cc1ccc(N)cc1 | 0
Nc1c(F)c(F)c(N)c(F)c1F | 0
O=C(O)c1cc(Br)c(C(=O)O)cc1Br | 0
O=Cc1ccc(-c2ccccc2)cc1 | 4.67
